Values after ≈ are worked out from the molar mass of the structure shown. Read-outs that look alike come from different tables or passages of the source.
Columns and labels:
Assay in all cases: in vitro antibacterial activity, agar plate dilution method
Type in all cases: cell-based
[1] = test system: A. calcoaceticus No. 4
Protocol: (§1) Now, the in vitro antibacterial activities of the compounds of the present invention against various microorganisms, were measured by the following agar plate dilution method.
(§2) One platinum loopfull of each test microorganism incubated overnight in Mueller Hinton broth, was inoculated to Mueller Hinton agar (MH agaer). Such culture media containing various antibiotics in various concentrations were prepared. After incubation at 37° C. for 16 hours, the minimum inhibitory concentrations (MIC μg/ml) were measured.

[2] = test system: E. cloacae 963
Protocol: as §1, §2

[3] = test system: E. cloacae Nek 39*
Protocol: as §1, §2

[4] = test system: E. coli CSH(RE45)*; settings: 10^6 CFU/ml, β-Lactamase-producing strain, 37° C., 16 hours
Protocol: as §1, §2

[5] = test system: E. coli GN5482*
Protocol: as §1, §2

[6] = test system: E. coli NIHJ JC2; settings: 10^6 CFU/ml, Mueller Hinton agar, 37° C., 16 hours
Protocol: as §1, §2

[7] = test system: K. oxytoca GN10650*
Protocol: as §1, §2

[8] = test system: K. pneumoniae No. 42*
Protocol: as §1, §2

[9] = test system: K. pneumoniae PC1-602
Protocol: as §1, §2

[10] = test system: M. morganii GN5407*
Protocol: as §1, §2

[11] = test system: P. vulgaris HX-19
Protocol: as §1, §2

[12] = test system: P. vulgaris No. 33*
Protocol: as §1, §2

[13] = test system: Ps. aeruginosa AK 109
Protocol: as §1, §2

[14] = test system: Ps. aeruginosa AKR17; settings: 10^6 CFU/ml, Mueller Hinton agar, 37° C., 16 hours
Protocol: as §1, §2

[15] = test system: Ps. aeruginosa IFO3445
Protocol: as §1, §2

[16] = test system: Ps. cepacia 23
Protocol: as §1, §2

[17] = test system: S. aureus 209P NIHJ-JC1
Protocol: as §1, §2

[18] = test system: S. marcescens IAM 1184
Protocol: as §1, §2

[19] = test system: S. marcescens No. 16-2*
Protocol: as §1, §2

[20] = test system: E. coli CSH2(RK1)*; settings: Escherichia coli, 16 h
Protocol: as §1, §2

[21] = 10^6 CFU/ml, Mueller Hinton agar, 37° C., 16 hours
[22] = 10^6 CFU/ml, β-Lactamase-producing strain, 37° C., 16 hours
[23] = Acinetobacter calcoaceticus, NO.4, 10^6 CFU/ml, Mueller Hinton agar, 37° C., 16 hours, read-out: MIC
[24] = Enterobacter cloacae, 963, 16 h
[25] = Escherichia coli, read-out: MIC
[26] = Escherichia coli, NIHJJC2, read-out: MIC
[27] = Klebsiella oxytoca, GN10650, 16 h
[28] = Klebsiella pneumoniae, PC1602, 10^6 CFU/ml, Mueller Hinton agar, 37° C., 16 hours, read-out: MIC
[29] = Morganella morganii, GN5407, 16 h
[30] = Pseudomonas aeruginosa, AKR17, read-out: MIC
[31] = Serratia marcescens, IAM1184, 16 h
[32] = Pseudomonas aeruginosa, AK109, 16 h
[33] = Pseudomonas aeruginosa, IFO3445, 16 h

Row | Structure (SMILES) | MIC [1, 23] | MIC [2, 24] | MIC ([3]; Enterobacter cloacae, 16 h) | MIC [4, 25] | MIC [20] | MIC ([5]; Escherichia coli, GN5482, 16 h) | MIC [6, 26] | MIC [7, 27] | MIC ([8]; Klebsiella pneumoniae, 16 h) | MIC [9, 28] | MIC [10, 29] | MIC ([12]; Proteus vulgaris, 16 h) | MIC [14, 30] | MIC ([16]; Burkholderia cepacia, 23, 16 h) | MIC ([17]; Staphylococcus aureus, 16 h) | MIC [18, 31] | MIC ([19]; Serratia marcescens, 16 h) | MIC ([11]; Proteus vulgaris, HX19, 16 h) | MIC [13, 32] | MIC [15, 33] | other results
1 | C=C(ON=C(C(=O)N[C@@H]1C(=O)N2C(C(=O)[O-])=C(C[n+]3ccccc3)CS[C@H]12)c1csc(N)n1)C(=O)O (single isomer, unassigned) [Example 1, 7β-[2-(2-aminothiazol-4-yl)-2-(1-carboxy-1-vinyloxyimino)acetamido]-3-(1-pyridinio)methyl-3-cephem-4-carboxylate (syn-isomer)] | – | – | – | – | – | – | – | – | – | – | – | – | – | – | – | – | – | – | – | – | MIC [1, 21]: 12.5 µg/mL (≈ 23.6 µM); MIC [2, 21]: 0.025 µg/mL (≈ 0.0471 µM); MIC [3, 22]: 0.39 µg/mL (≈ 0.735 µM); MIC [4]: 0.025 µg/mL (≈ 0.0471 µM); MIC [5, 22]: 0.2 µg/mL (≈ 0.377 µM); MIC [6]: 0.025 µg/mL (≈ 0.0471 µM); MIC [7, 22]: 0.1 µg/mL (≈ 0.188 µM); MIC [8, 22]: 0.1 µg/mL (≈ 0.188 µM); MIC [9, 21]: < 0.006 µg/mL; MIC [10, 22]: 0.0125 µg/mL (≈ 0.0236 µM); MIC [11, 21]: 0.0125 µg/mL (≈ 0.0236 µM); MIC [12, 22]: 0.0125 µg/mL (≈ 0.0236 µM); MIC [13, 21]: 1.56 µg/mL (≈ 2.94 µM); MIC [14]: > 100 µg/mL; MIC [15, 21]: 0.78 µg/mL (≈ 1.47 µM); MIC [16, 21]: 3.12 µg/mL (≈ 5.88 µM); MIC [17, 21]: 3.12 µg/mL (≈ 5.88 µM); MIC [18, 21]: < 0.006 µg/mL; MIC [19, 22]: 0.78 µg/mL (≈ 1.47 µM)
2 | CO/N=C(\C(=O)N[C@@H]1C(=O)N2C(C(=O)O)=C(COC(C)=O)CS[C@H]12)c1csc(N)n1 [Cefotaxime, reference compound] | 25 µg/mL (≈ 54.9 µM) | 0.05 µg/mL (≈ 0.11 µM) | 1.56 µg/mL (≈ 3.43 µM) | 0.1 µg/mL (≈ 0.22 µM) | 0.0125 µg/mL (≈ 0.0274 µM) | 0.39 µg/mL (≈ 0.856 µM) | 0.05 µg/mL (≈ 0.11 µM) | 0.39 µg/mL (≈ 0.856 µM) | 0.05 µg/mL (≈ 0.11 µM) | < 0.006 µg/mL | 0.05 µg/mL (≈ 0.11 µM) | 0.025 µg/mL (≈ 0.0549 µM) | > 100 µg/mL | 6.25 µg/mL (≈ 13.7 µM) | 1.56 µg/mL (≈ 3.43 µM) | 0.0125 µg/mL (≈ 0.0274 µM) | 6.25 µg/mL (≈ 13.7 µM) | – | – | – | MIC ([11]; Proteus vulgaris, HX19, 10^6 CFU/ml, Mueller Hinton agar, 37° C., 16 hours, read-out: MIC): < 0.006 µg/mL; MIC ([13]; Pseudomonas aeruginosa, AK109, 10^6 CFU/ml, Mueller Hinton agar, 37° C., 16 hours, read-out: MIC): 12.5 µg/mL (≈ 27.4 µM); MIC ([15]; Pseudomonas aeruginosa, IFO3445, 10^6 CFU/ml, Mueller Hinton agar, 37° C., 16 hours, read-out: MIC): 25 µg/mL (≈ 54.9 µM)
3 | CC(C)(O/N=C(\C(=O)N[C@@H]1C(=O)N2C(C(=O)[O-])=C(C[n+]3ccccc3)CS[C@H]12)c1csc(N)n1)C(=O)O [Ceftazidime, reference compound] | – | 0.1 µg/mL (≈ 0.183 µM) | 1.56 µg/mL (≈ 2.85 µM) | 0.2 µg/mL (≈ 0.366 µM) | 0.1 µg/mL (≈ 0.183 µM) | 1.56 µg/mL (≈ 2.85 µM) | 0.1 µg/mL (≈ 0.183 µM) | 0.1 µg/mL (≈ 0.183 µM) | 0.39 µg/mL (≈ 0.714 µM) | – | 0.1 µg/mL (≈ 0.183 µM) | 0.5 µg/mL (≈ 0.915 µM) | > 100 µg/mL | 0.78 µg/mL (≈ 1.43 µM) | 6.25 µg/mL (≈ 11.4 µM) | < 0.006 µg/mL | 1.56 µg/mL (≈ 2.85 µM) | 0.025 µg/mL (≈ 0.0457 µM) | 0.78 µg/mL (≈ 1.43 µM) | 1.56 µg/mL (≈ 2.85 µM) | MIC ([1]; Acinetobacter calcoaceticus, NO.4, 16 h): 6.25 µg/mL (≈ 11.4 µM); MIC ([9]; Klebsiella pneumoniae, PC1602, 16 h): 0.25 µg/mL (≈ 0.457 µM)
4 | C=C(O/N=C(\C(=O)N[C@@H]1C(=O)N2C(C(=O)[O-])=C(C[n+]3cccc4c3CCC4)CS[C@H]12)c1csc(N)n1)C(=O)O [Example 2, 7β-[2-(2-aminothiazol-4-yl)-2-(1-carboxy-1-vinyloxyimino)acetamido]-3-(2,3-cychlopenteno-pyridinio)methyl-3-cephem-4-carboxylate (syn-isomer)] | 3.12 µg/mL (≈ 5.47 µM) | 0.05 µg/mL (≈ 0.0876 µM) | 0.2 µg/mL (≈ 0.351 µM) | 0.78 µg/mL (≈ 1.37 µM) | 0.025 µg/mL (≈ 0.0438 µM) | 0.1 µg/mL (≈ 0.175 µM) | 0.05 µg/mL (≈ 0.0876 µM) | 0.1 µg/mL (≈ 0.175 µM) | 0.39 µg/mL (≈ 0.683 µM) | 0.0125 µg/mL (≈ 0.0219 µM) | 0.025 µg/mL (≈ 0.0438 µM) | 0.025 µg/mL (≈ 0.0438 µM) | 100 µg/mL (≈ 175 µM) | 0.39 µg/mL (≈ 0.683 µM) | 1.56 µg/mL (≈ 2.73 µM) | – | 0.78 µg/mL (≈ 1.37 µM) | 0.025 µg/mL (≈ 0.0438 µM) | 1.56 µg/mL (≈ 2.73 µM) | 1.56 µg/mL (≈ 2.73 µM) | MIC ([18]; Serratia marcescens, IAM1184, 10^6 CFU/ml, Mueller Hinton agar, 37° C., 16 hours, read-out: MIC): 0.0125 µg/mL (≈ 0.0219 µM)

From patent US5084453A, “1-carboxy-1-vinyloxyimino aminothiazole cephalosporin derivatives” (priority 1988, dated 1992)
